Earlier results in article PMC5465828 (Research in Pharmaceutical Sciences, 2017).

System: human colon carcinoma HCT116 cell line
Details: read-out: IC50 of doxorubicin in HCT116 cells; doxorubicin alone

Structure (SMILES): COc1cccc2c1C(=O)c1c(O)c3c(c(O)c1C2=O)C[C@@](O)(C(=O)CO)C[C@@H]3O[C@H]1C[C@H](N)[C@H](O)[C@H](C)O1 [doxorubicin]
- IC50: 200 nM
